Each structure is given as a SMILES string.

Data set [1] concerns lipid droplets in HeLa cells. The data set is described as follows: Multicolor imaging and time-course imaging of lipid droplet formation in HeLa cells. The class given is cell-based. How it is done:
Further, HeLa cells were cultured for 30 minutes in a medium to which PC6S was added to a final concentration of 100 nM, and PC6S unincorporated in the cells was removed, followed by acquiring a fluorescence imaging image (Hour 0) using an inverted fluorescence microscope in the same manner as in Example 2. The cells were cultured in the presence of 400 μM oleic acid for 24 hours, and their fluorescence imaging images were acquired 4, 8, 12, and 24 hours later.

Data set [2] can be described thus: Measurement of fluorescence lifetime in solvents. The class given is physicochemical. The protocol:
The fluorescence lifetime (τf) of each compound in each solvent was measured using a compact fluorescence lifetime measurement apparatus (Quntaurus-Tau, manufactured by Hamamatsu Photonics K.K.).

Data set [3] concerns lipid droplets in the liver. The experiment in a line: Fluorescence intensity and lifetime imaging of liver lipid droplets in normal and fatty-liver model mice. The data set is classed as in vivo, mice (C57BL/6J). The protocol:
Fluorescence imaging of lipid droplets in a body tissue, and of an adipose tissue, using PC6S is described below. […] Therefore, PC6S cannot be administered to mice. In view of this, 5 mM stock solution was added (at 10% in terms of the volume ratio) to physiological saline supplemented with 10% bovine serum albumin. […] Regarding administration of MNs-NB, a stock solution in DMSO is directly administered to mice. Since administration of DMSO may cause death of mice from shock, the administration method in the present invention is thought to be a safer method. Here, 100 to 200 μL of 500 μM solution (50 to 100 nmol) was administered to the tail vein of a mouse under anesthesia, and a fluorescence imaging experiment was carried out using a confocal laser microscope (excitation wavelength, 488 nm; monitoring wavelength, 510 to 560 nm). In the present experiment, a microscope capable of acquiring fluorescence lifetime images as well as fluorescence intensity images (FLIM: fluorescence lifetime imaging microscope) (Simple-Tau-150-DX; Becker & Hickl) was used. The animal experiment was carried out in accordance with the animal experiment safety regulations in Gunma University.
Fatty-liver model mice are known to have a liver containing a larger amount of lipid droplets accumulated therein compared to normal mice. Here, fatty-liver model mice were prepared by feeding mice (C57BL/6J) with an ultra-high-fat, choline-deficient, methionine-reduced diet for 2 weeks or 10 weeks. […] Furthermore, in the mouse fed with the fatty diet for 10 weeks, intense fluorescence was found from structures having shapes different from those of lipid droplets, in addition to the fluorescence from lipid droplets. This is thought to be autofluorescence due to infiltration of macrophage-derived cells caused by liver fibrosis.

For a further data set, the system named is fixed HeLa cells. The experiment in a line: Fluorescence imaging of fixed HeLa cells. The class given is cell-based. Particulars: 100 nM, 30 minutes, HeLa fixed in 4% paraformaldehyde-phosphate buffer. The protocol: The fluorescence imaging reagent of the present invention is applicable to, and allows the detection in, unfixed biological samples and living bodies. The reagent is, however, also useful for fixed samples. HeLa cells cultured in the presence of 400 μM oleic acid for 48 hours were fixed in 4% paraformaldehyde-phosphate buffer for 20 minutes, and PC6S was added thereto to a final concentration of 100 nM, followed by performing culture for 30 minutes, washing the cultured cells, and then acquiring a fluorescence imaging image using an inverted fluorescence microscope in the same manner as in Example 2.

Data set [4] has as its system 3T3-L1 cells (adipocytes). The experiment in a line: Intracellular photostability under excitation light in 3T3-L1 cells. The class given is cell-based. How it is done: (§1) Using a fluorescence microscope (IX71, manufactured by Olympus Corporation), fluorescence imaging images of cells were acquired over time, and the photostability (It/I0) and the retention property were measured.
The photostability and the retention property are important factors in long-term measurement for, for example, tracing the processes of formation, fusion, and degradation of lipid droplets. Each fluorescent reagent was added to 3T3-L1 cells (adipocytes) to a final concentration of 100 nM, and the cells were cultured for 30 minutes. After washing the cells, the cells were irradiated with an excitation light required for imaging (450 to 500 nm; for LipiDye, an excitation wavelength of 400 to 440 nm), to evaluate the photostability. By regarding the time immediately after the irradiation as Second 0, imaging images were acquired at 20-second intervals for analysis of the image intensity.

Data set [5] deals with lipid droplets in HeLa cells. The experiment in a line: Fluorescence imaging of lipid droplets in oleic acid-treated HeLa cells. The class given is cell-based. An excerpt:
Since LipiDye requires use of an excitation wavelength of about 405 nm, there is a concern about phototoxicity to cells in cases of long observation.

Data set [6] relates to lipid droplets in a body tissue and adipose tissue. The experiment in a line: Non-laparotomic imaging of lipid droplets in a fatty-liver model nude mouse. The data set is classed as in vivo. Particulars: 50 nmol, tail vein. The protocol: Non-laparotomic imaging of lipid droplets in a body tissue, and of an adipose tissue, using PC6S is described below. A nude mouse was fed with a high-fat diet for 2 weeks to prepare a fatty-liver model mouse. PC6S (50 nmol) was administered from the tail vein of the nude mouse under anesthesia. Images were taken using a simple in vivo imaging device (Discovery (registered trademark); INDEC BioSystem) (for the nude mice lying on its back). An excitation wavelength of 450 to 490 nm and a monitoring wavelength of 520 nm or higher were employed. […] In order to confirm that the fluorescence was found from the liver, an image was taken after laparotomy. […] It was thus shown that the fluorescence imaging reagent of the present invention is useful even without laparotomy.

In data set [7] the test system is 3T3-L1 cells (adipocytes). The experiment in a line: Intracellular retention property in 3T3-L1 cells. The data set is classed as cell-based. The protocol:
as §1
For evaluation of the intracellular retention property of each reagent, each fluorescent reagent was added to 3T3-L1 cells (adipocytes) to a final concentration of 100 nM (for Lipi-Green, 500 nM), and imaging images were acquired after 30 minutes of culture and 24 hours after washing away of the reagent.

Another data set has as its system HeLa cells. The experiment in a line: Cytotoxicity with cell growth-cytotoxicity measurement kit CCK-8. The class given is cell-based. Particulars: 0.1, 0.5, 1, 10, 20, 40 or 50 μM, 24 hours. The protocol:
Further, HeLa cells were plated on a 96-well plate, and allowed to adhere to a glass surface. Thereafter, PC6S was added to the medium (to a final concentration of 0.1, 0.5, 1, 10, 20, 40, or 50 μM), and culture was performed for 24 hours. After washing, cytotoxicity was evaluated using a cell growth-cytotoxicity measurement kit CCK-8. Two hours after the addition of the reagent, the absorbance was measured.

Consider `CCN(CC)c1ccc2cc3cc(-c4nc5ccccc5s4)c(=O)oc3cc2c1` [PC6S, 3-(Benzo[d]thiazol-2-yl)-8-(diethylamino)-2H-benzo[g]chromen-2-one], for which the “imaging of lipid droplet formation over time” value in data set [1] (100 nM, then 400 μM oleic acid, 4, 8, 12 and 24 hours) is “the process of gradual formation of lipid droplets could be imaged over time”. In addition, the multicolor imaging entry in [1] (combined use with Hoechst 33342 and Mito tracker red) was “multicolor imaging was possible”. The “τf (fluorescence lifetime)” value in data set [2] (in Bu2O (dibutyl ether)) is recorded as 2.91 ns; in data set [2] (in DMSO), 3.46 ns; in data set [2] (in EtOAc) it was 3.41 ns; in data set [2] (in MeCN), 3.72 ns; in data set [2] (in n-Hexane) it was 2.55 ns. In addition, the “lipid droplet imaging of liver surface” value in [3] (100 nmol, tail vein, fatty-liver model mouse (Week 2)) was “large lipid droplets were imaged over the entire liver surface”; in [3] (100 nmol, tail vein, mouse fed with a normal diet), “small lipid droplets could be found in hepatocytes”. Besides, the “fluorescence lifetime imaging of liver surface” value in data set [3] (100 nmol, tail vein, mouse fed with the fatty diet for 10 weeks) is “capable of distinguishing between the autofluorescence (blue) and the PC6S fluorescence (orange)”. Besides, the “Imaging of lipid dropletts in a tissue” value in data set [3] (summary grade, Table 3) is reported as “⊚”. In the data set with fixed HeLa cells, the “fluorescence detection in fixed cells” value is listed as “fluorescence of PC6S could be detected also in the fixed HeLa cells”. In addition, the “photostability (fluorescence intensity ratio It/I0 against irradiation time)” value in data set [4] (100 nM, 3T3-L1 cells, relative to the commercially available reagents) is on record as “highest photostability”. In addition, the Photostability result in data set [4] (summary grade, Table 3) is reported as “⊚”. Also, the “imaging of lipid droplets / lipid droplet selectivity in HeLa cells” value in data set [5] (100 nM reagent, 30 minutes, 400 μM oleic acid 48 hours) is listed as “capable of clear imaging of lipid droplets”. Besides, the “fluorescence intensity of HeLa cells” value in data set [5] (100 nM reagent, 30 minutes, compared with BODIPY493/503 or Lipi Green) is listed as “higher fluorescence intensities”. The Brightness in cells result in data set [5] (summary grade, Table 3) is recorded as “⊚”. The “Selectivity for lipid droplets” value in [5] (summary grade, Table 3) is “◯”. Also, the laparotomic imaging result in [6] (after laparotomy) is reported as “Fluorescence derived from PC6S was found in the liver”. For the same compound, the non-laparotomic imaging result in [6] (without laparotomy) was “Fluorescence derived from PC6S was found around the liver”. The intracellular retention property entry was “high intracellular retention properties” in data set [7] (100 nM (Lipi-Green 500 nM), 3T3-L1 cells, 24 hours after washing away of the reagent) and “⊚” in data set [7] (summary grade, Table 3). Also, the cytotoxicity entry with HeLa cells was “no remarkable cytotoxicity was found at any concentration”.

The values are drawn from patent publication US12306194B2, “Reagent for fluorescence imaging of lipid droplets in cell and tissue” (NATIONAL UNIVERSITY CORPORATION GUNMA UNIVERSITY, priority 2019, dated 2025).
